In patent publication US7332495B2 (priority 2002, dated 2008):
Structures can show the parent of a compound that is named as a salt.

How the values were obtained:
Kunming mice [1] = assay: Mice writhing model (acetic acid); type: in vivo; settings: i.p. 20 mg/Kg, acetic acid 0.7% i.p. after 30 minutes, writhes in 5 minutes; for inhibition in vivo at 20 mg/kg: Mus musculus, ip, read-out: Analgesia (inhibition ratio of writhing)
Experimental: (§1) Kunming mice were used, with a male-female ratio of 50-50%. The test compound is administered i.p. (20 mg/Kg body weight) to the test groups, and physiological saline is administered P.O. (20 ml/Kg body weight) to the control group. After 30 minutes, acetic acid (0.7%, […] i.p.) was injected and the number of writhes was observed during a 5-minute period after acetic acid administration. The inhibition ratio of the writhing threshold was calculated. The alternating current tube is used to record the spontaneous activities for measuring sedation.
Two species of animals (mice and rats) and four types of pain testing models (i.p. 0.7% acetic acid, s.c. 5% formalin, hot plate 55° C., focused radiant heat) were used.

Kunming mice [2] = assay: Sedation: spontaneous activities recorded with alternating current tube; type: in vivo; settings: i.p. 20 mg/Kg, spontaneous activities; for inhibition in vivo at 20 mg/kg: Mus musculus, ip
Experimental: as §1, with “The test compound is administered i.p. (20 mg/Kg body weight) to the test groups, and physiological saline is administered P.O. (20 ml/Kg body weight) to the control group.” left out

Row | SMILES | inhibition in vivo at 20 mg/kg (Kunming mice [1]) [%] | inhibition in vivo at 20 mg/kg (Kunming mice [2]) [%] | other results
1 | CC(=O)Nc1ccc(C(=O)CN2CCN(Cc3ccc([N+](=O)[O-])cc3)CC2)cc1 [IV-18, N^1-(4-nitrobenzyl)-N^4-[(4-acetamido)phenacyl]piperazine] | 64 | 65 | 
2 | CC(=O)Nc1ccc(CN2CCN(CC(=O)c3ccccc3)CC2)cc1 (as salt: hydrochloride) [IV-21, N^1-(4-acetamidobenzyl)-N^4-phenacyl piperazine] |  |  | melting point: 238 to 240 °C
3 | CC(=O)Nc1ccc(C(=O)CN2CCN(Cc3ccc([N+](=O)[O-])cc3)CC2)cc1 (as salt: hydrochloride) [IV-18, N^1-(4-nitrobenzyl)-N^4-[(4-acetamido)phenacyl]piperazine] |  |  | melting point: 228 to 230 °C
4 | COc1ccc(C(=O)CN2CCN(CCC(O)c3ccccc3)CC2)cc1 (stereo not shown) [IV-22, N^1-(3-phenylpropyl-3-ol)-N^4-(4-methoxyphenacyl)piperazine] |  |  | Analgesia (inhibition ratio of writhing) (Kunming mice [1]): 100%; Sedation (Kunming mice [2]): 84%
5 | O=C(CN1CCN(Cc2ccccc2)CC1)c1ccc(Cl)cc1 [IV-6, N^1-benzyl-N^4-(4-chlorophenacyl)piperazine] | 43 | 73 | 
6 | O=C(CN1CCN(CCc2ccccc2)CC1)c1ccccc1 (as salt: hydrochloride) [IV-14, N^1-phenethyl-N^4-phenacyl piperazine] |  |  | melting point: 238 to 240 °C
7 | Cc1ccc(C(=O)CN2CCN(C(C)c3ccccc3)CC2)cc1 (stereo not shown) (as salt: hydrochloride) [IV-40, N^1-(1-phenylethyl)-N^4-(4-methylphenacyl)piperazine] |  |  | melting point: 230 to 232 °C
8 | Cc1ccc(C(=O)CN2CCN([C@@H](C)c3ccccc3)CC2)cc1 [IV-42, N^1-(S-1-phenylethyl)-N^4-(4-methylphenacyl)piperazine] |  |  | Analgesia (inhibition ratio of writhing) (Kunming mice [1]): 44%; Sedation (Kunming mice [2]): 0%
9 | COc1ccc2cc(C(=O)C(C)N3CCN(Cc4ccc(N)cc4)CC3)ccc2c1Cl (stereo not shown) (as salt: hydrochloride) |  |  | melting point: 206 to 208 °C
10 | O=C(CN1CCN(Cc2ccc(Cl)cc2)CC1)c1ccccc1 [IV-3, N^1-(4-chlorobenzyl)-N^4-phenacyl piperazine] | 56.6 | 70.8 | 
11 | CC(c1ccccc1)N1CCN(CC(=O)c2ccccc2)CC1 (stereo not shown) (as salt: hydrochloride) [IV-37, N^1-(1-phenylethyl)-N^4-phenacyl piperazine] |  |  | melting point: 242 °C (dec.)
12 | COc1ccc(CN2CCN(C(C)C(=O)c3ccc4c(Cl)c(OC)ccc4c3)CC2)cc1 (stereo not shown) [IV-31, N^1-(4-methoxybenzyl)-N^4-[1-(5-chloro-6-methoxy-2-naphthoyl)ethyl]piperazine] | 45 | 7 | 
13 | O=C(CN1CCN(Cc2cccc3ccccc23)CC1)c1ccccc1 [IV-58, N^1-(1-naphthalenylmethyl)-N^4-phenacyl piperazine] |  |  | Analgesia (inhibition ratio of writhing) (Kunming mice [1]): 49%; Sedation (Kunming mice [2]): 32%
14 | CC(C(=O)c1ccccc1)N1CCN(Cc2ccc([N+](=O)[O-])cc2)CC1 (stereo not shown) [IV-47, N^1-(4-nitrobenzyl)-N^4-(1-benzoylethyl)piperazine] | 28.8 | 26.4 | 
15 | O=C(CCN1CCN(Cc2ccccc2)CC1)c1ccccc1 [IV-17, N^1-benzyl-N^4-(2-benzoylethyl)piperazine] | 45 | 75 | 
16 | COc1ccc(CN2CCN(CC(=O)c3ccccc3)CC2)cc1 (as salt: hydrochloride) [IV-10, N^1-(4-methoxybenzyl)-N^4-phenacyl piperazine] |  |  | melting point: 222 to 224 °C
17 | CC(=O)Nc1ccc(C(=O)CN2CCN(Cc3ccccc3)CC2)cc1 [IV-55, N^1-benzyl-N^4-(4-acetamidophenacyl)piperazine] | 21 | 52 | 
18 | Cc1ccc(C(=O)CN2CCN([C@H](C)c3ccccc3)CC2)cc1 [IV-41, N^1—(R-1-phenylethyl)-N^4-(4-methylphenacyl)piperazine] | 60 | 72 | 
19 | C[C@H](c1ccccc1)N1CCN(CC(=O)c2ccccc2)CC1 (as salt: hydrochloride) [IV-38, N^1—(R-1-phenylethyl)-N^4-phenacyl piperazine] |  |  | melting point: 230 to 232 °C
20 | COc1ccc(C(=O)CN2CCN(Cc3ccccc3)CC2)cc1 [IV-8, N^1-benzyl-N^4-(4-methoxyphenacyl)piperazine] | 39 | 64 | 
21 | O=C(CN1CCN(Cc2ccccc2)CC1)c1ccc2ccccc2c1 (as salt: hydrochloride) [IV-7, N^1-benzyl-N^4-(2-naphthoylmethyl)piperazine] |  |  | melting point: 241 °C (dec.)

Row | SMILES | inhibition in vivo at 20 mg/kg (Kunming mice [1]) [%] | inhibition in vivo at 20 mg/kg (Kunming mice [2]) [%] | other results
22 | CC(C(=O)c1ccccc1)N1CCN(Cc2ccc(Cl)cc2)CC1 (stereo not shown) (as salt: hydrochloride) |  |  | melting point: 260 to 262 °C
23 | COc1ccc2cc(C(=O)C(C)N3CCN(Cc4ccc5c(c4)OCO5)CC3)ccc2c1Cl (stereo not shown) (as salt: hydrochloride) |  |  | melting point: 230 to 232 °C
24 | O=C(CN1CCN(Cc2cccnc2)CC1)c1ccccc1 [IV-11, N^1-(3-pyridylmethyl)-N^4-phenacyl piperazine] | 86 | 91 | 
25 | O=C(CN1CCN(Cc2ccc3ccccc3c2)CC1)c1ccccc1 [IV-59, N^1-(2-naphthalenylmethyl)-N^4-phenacyl piperazine] | 45 | 0 | 
26 | O=C(CN1CCN(Cc2ccc(F)cc2)CC1)c1ccc(Cl)cc1 [IV-20, N^1-(4-fluorobenzyl)-N^4-(4-chlorophenacyl)piperazine] | 45 | 60 | 
27 | O=C(CN1CCN(Cc2ccccc2)CC1)c1ccc([N+](=O)[O-])cc1 [IV-9, N^1-benzyl-N^4-(4-nitrophenacyl)piperazine] | 74 | 32 | 
28 | CCOC(=O)C(c1ccccc1)N1CCN(CC(=O)c2ccccc2)CC1 (stereo not shown) [IV-5, N^1-[(1-ethoxy-oxo-methyl)benzyl]-N^4-phenacyl piperazine] |  |  | Analgesia (inhibition ratio of writhing) (Kunming mice [1]): 14%; Sedation (Kunming mice [2]): 44%
29 | CCC(c1ccccc1)N1CCN(CC(=O)c2ccccc2)CC1 (stereo not shown) [IV-61, N^1-(1-phenylpropyl)-N^4-phenacyl piperazine] | 6 | 56 | 
30 | COc1ccc(OC)c(CN2CCN(CC(=O)c3ccccc3)CC2)c1 [IV-15, N^1-(2,5-dimethoxybenzyl)-N^4-phenacyl piperazine] | 80 | 93 | 
31 | COc1ccc([N+](=O)[O-])cc1CN1CCN(CC(=O)c2ccccc2)CC1 [IV-23, N^1-(2-methoxy-5-nitrobenzyl)-N^4-phenacyl piperazine] | 87 | 96 | 
32 | CC(c1ccc([N+](=O)[O-])cc1)N1CCN(CC(=O)c2ccccc2)CC1 (stereo not shown) [IV-60, N^1-[1-(4-nitrophenyl)ethyl]-N^4-phenacyl piperazine] | 37 | 66 | 
33 | C[C@@H](c1ccccc1)N1CCN(CC(=O)c2ccccc2)CC1 [IV-39, N^1-(S-1-phenylethyl)-N^4-phenacyl piperazine] |  |  | Analgesia (inhibition ratio of writhing) (Kunming mice [1]): 42%; Sedation (Kunming mice [2]): 35%
34 | COc1ccc2cc(C(=O)C(C)N3CCN(C(C)c4ccccc4)CC3)ccc2c1Cl (stereo not shown) [IV-43, N^1-(1-phenylethyl)-N^4-[1-(5-chloro-6-methoxy-2-naphthoyl)ethyl]piperazine] | 42 | 4 | 
35 | CC(c1ccc(F)cc1)N1CCN(CC(=O)c2ccccc2)CC1 (stereo not shown) [IV-24, N^1-[1-(4-fluorophenyl)ethyl]-N^4-phenacyl piperazine] | 64 | 47 | 
36 | CC(C(=O)c1ccccc1)N1CCN(Cc2ccc(N)cc2)CC1 (stereo not shown) [IV-13, N^1-(4-aminobenzyl)-N^4-(1-benzoylethyl)piperazine] | 100 | 86 | 
37 | O=C(CN1CCN(Cc2ccc([N+](=O)[O-])cc2)CC1)c1ccccc1 [IV-4, N^1-(4-nitrobenzyl)-N^4-phenacyl piperazine] | 93.2 | 39.6 | 
38 | O=C(CN1CCN(Cc2ccccc2)CC1)c1ccc2ccccc2c1 [IV-7, N^1-benzyl-N^4-(2-naphthoylmethyl)piperazine] | 25 | 43 | 
39 | O=C(CN1CCN(Cc2ccccc2)CC1)c1ccccc1 [IV-1, N^1-benzyl-N^4-phenacyl piperazine] | 68.2 | 65.6 | 
40 | O=C(CN1CCN(Cc2ccc([N+](=O)[O-])cc2)CC1)NCc1ccccc1 [IV-62, N^1-(4-nitrobenzyl)-N^4-[2-(benzylamino)-2-oxo-ethyl]piperazine] | 64 | 42 | 
41 | Nc1ccc(C(=O)CN2CCN(Cc3ccccc3)CC2)cc1 [IV-16, N^1-benzyl-N^4-(4-aminophenacyl)piperazine] | 63 | 51 | 
42 | C[C@H](c1ccccc1)N1CCN(CC(=O)c2ccccc2)CC1 [IV-38, N^1—(R-1-phenylethyl)-N^4-phenacyl piperazine] | 51 | 99 | 
